“And” between values parts separate entries of the source, which are not always exact repeats. Equal entries are not always repeated. Bridge positions count the residues as written; N and C are the ends. Square brackets hold non-standard residues; d marks the D form. Peptide text beside a SMILES is read from it. * marks the point of attachment. X1 = C=CCN1CC[C@]23c4c5ccc(O)c4O[C@H]2[C@H](N*)CC[C@@]3(O)[C@H]1C5
Tests used:
mouse KOR [1] = molecular target: T1, mouse KOR (Mus musculus, UniProt P33534); assay: biochemical; assay type: binding; design: expressed in transfected cells; conditions: for specific [3H]DPN binding, normalized to 100%: replicates; for Ki: [3H]DPN 1 nM, read-out: Ki
mouse KOR [2] = molecular target: T1, mouse KOR; assay: cell-based; design: expressed in transfected cells; conditions: for Emax: HEK-293T, read-out: Emax cAMP assay; for EC50: read-out: EC50 cAMP assay

T1 sequence (P33534 whole entry): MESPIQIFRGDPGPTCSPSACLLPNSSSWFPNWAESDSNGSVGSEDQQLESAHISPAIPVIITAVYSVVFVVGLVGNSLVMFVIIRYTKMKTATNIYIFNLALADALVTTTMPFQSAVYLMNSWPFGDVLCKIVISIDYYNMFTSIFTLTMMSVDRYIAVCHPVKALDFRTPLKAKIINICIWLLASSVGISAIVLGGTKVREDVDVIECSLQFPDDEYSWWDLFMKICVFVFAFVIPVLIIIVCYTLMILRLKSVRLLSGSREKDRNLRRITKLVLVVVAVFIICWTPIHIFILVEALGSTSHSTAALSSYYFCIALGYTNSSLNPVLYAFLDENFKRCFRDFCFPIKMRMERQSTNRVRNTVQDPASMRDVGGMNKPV

Structure (SMILES) | specific [3H]DPN binding, normalized to 100% (mouse KOR [1]; Log [ligand] (M) -5) | specific [3H]DPN binding, normalized to 100% (mouse KOR [1]; Log [ligand] (M) -5.5) | specific [3H]DPN binding, normalized to 100% (mouse KOR [1]; Log [ligand] (M) -6) | specific [3H]DPN binding, normalized to 100% (mouse KOR [1]; Log [ligand] (M) -6.5) | specific [3H]DPN binding, normalized to 100% (mouse KOR [1]; Log [ligand] (M) -7) | specific [3H]DPN binding, normalized to 100% (mouse KOR [1]; Log [ligand] (M) -7.5) | specific [3H]DPN binding, normalized to 100% (mouse KOR [1]; Log [ligand] (M) -8) | specific [3H]DPN binding, normalized to 100% (mouse KOR [1]; Log [ligand] (M) -8.5) | specific [3H]DPN binding, normalized to 100% (mouse KOR [1]; Log [ligand] (M) -9) | specific [3H]DPN binding, normalized to 100% (mouse KOR [1]; Log [ligand] (M) -9.5) | Ki (mouse KOR [1]) [nM] | Emax (mouse KOR [2]) [%] | EC50 (mouse KOR [2]) [nM]
C=CCN1CC[C@]23c4c5ccc(O)c4O[C@H]2[C@H](NC(=O)[C@@H](Cc2ccccc2)NC(=O)[C@H](CO)NC(=O)[C@@H]2CSCC(=O)N[C@H]([C@H](C)O)C(=O)N[C@@H](CC(N)=O)C(=O)N[C@H](CCC(=O)O)C(=O)N[C@H](CO)C(=O)N[C@H](CC(C)C)C(=O)N2)CC[C@@]3(O)[C@H]1C5 [DNCP-β-NalA(2)] ({CH2CO}-[dT]N[dE][dS][dL]CS[dF]-X1; thioether N-6) | 0.2531 and 1.3817 and 8.417 | 5.254 and 5.706 and 15.2738 | 8.812 and 8.467 and 22.3516 | 20.0364 and 16.1798 and 28.5928 | 30.6965 and 29.2448 and 46.3656 | 73.9679 and 58.4159 and 82.1752 | 84.0925 and 77.2121 and 90.6295 | 94.004 and 85.6847 and 98.8664 | 85.0018 and 88.1692 and 96.9444 | 100 | 31 | 89 ± 2 | 7.5
C=CCN1CC[C@]23c4c5ccc(O)c4O[C@H]2[C@H](NC(=O)[C@@H](Cc2ccccc2)NC(=O)[C@@H](NC(=O)[C@@H]2CSCC(=O)N[C@@H](CC(=O)O)C(=O)N[C@@H](C)C(=O)N[C@H](Cc4ccc(O)cc4)C(=O)N[C@H](C)C(=O)N[C@@H](C(C)C)C(=O)N2)[C@@H](C)O)CC[C@@]3(O)[C@H]1C5 [DNCP-β-NalA(3)] ({CH2CO}-DA[dY][dA]VCT[dF]-X1; thioether N-6) | 4.711 and 4.268 and 3.134 | 9.049 and 8.477 and 7.931 | 13.9379 and 12.8705 and 12.6183 | 21.3908 and 20.9203 and 21.0807 | 41.59 and 36.2221 and 28.4597 | 75.8729 and 62.6776 and 54.9604 | 98.7879 and 86.9193 and 89.7517 | 102.113 and 95.9134 and 97.9933 | 101.53 and 101.749 and 103.107 | 100 | 24 | 99 ± 1 | 14
C=CCN1CC[C@]23c4c5ccc(O)c4O[C@H]2[C@H](NC(=O)[C@@H](Cc2ccccc2)NC(=O)[C@H](CO)NC(=O)[C@@H]2CSCC(=O)N[C@H](CO)C(=O)N[C@H](CC(=O)O)C(=O)N[C@H](Cc4c[nH]cn4)C(=O)N[C@@H](C)C(=O)N[C@@H](C)C(=O)N2)CC[C@@]3(O)[C@H]1C5 [DNCP-β-NalA(4)] | 7 and 5.59 and 5.4127 | 12.4013 and 7.976 and 9.019 | 12.817 and 12.3329 and 11.7119 | 19.572 and 16.0481 and 16.106 | 34.7156 and 27.5243 and 29.2083 | 62.865 and 48.8054 and 54.3277 | 85.7392 and 63.6235 and 68.5184 | 110.569 and 79.1117 and 88.8606 | 116.546 and 94.2824 and 100.104 | 100 | – | 101 ± 2 | 1

Reference: publication PMC10698194 (Nature Communications, 2023)
